# Assay results: PMC2892826 (Cell cycle (Georgetown, Tex.), 2009)
# Like-named read-outs stand apart in the source and are kept apart here.
# Tests used:
# [1] = molecular target: tumor CT-L activity of the proteasome (Homo sapiens, UniProt P20618+P28074); test: Proteasome activity in A549 tumor lysates after in vivo treatment, CT-L; set-up: species or system nude mice; conditions: A549 tumors, 1 mpk i.p., 2 h after last injection
# [2] = molecular target: tumor PGPH activity of the proteasome (Homo sapiens, UniProt P28072); test: Proteasome activity in A549 tumor lysates after in vivo treatment, PGPH; set-up: species or system nude mice; conditions: A549 tumors, 1 mpk i.p., 2 h after last injection
# [3] = system: MCF-7/MCF-10A, T80-Hras/T80, C7-Kras/C7 cells; test: TUNEL apoptosis assay in 3 pairs of cell lines; type: cell-based, human; conditions: 24 h
# [4] = system: A549 human lung tumors; test: A549 xenograft in nude mice; type: in vivo; conditions: A549 s.c. xenograft, 1 mpk i.p. 2x weekly; for average tumor size: start ~200 mm^3, 16 days
# [5] = system: primary multiple myeloma cells from patients' bone marrow; test: Cell death of primary MM cells; type: cell-based, human; conditions: read-out: IC50 Cell Death
# [6] = molecular target: CT-L activity of purified 20S proteasome (Oryctolagus cuniculus, UniProt G1SU71+G1T4Q9); test: Proteolytic activity of purified 20S proteasome, CT-L; type: biochemical, rabbit
# Sequence of CT-L activity of purified 20S proteasome (G1T4Q9 60-263): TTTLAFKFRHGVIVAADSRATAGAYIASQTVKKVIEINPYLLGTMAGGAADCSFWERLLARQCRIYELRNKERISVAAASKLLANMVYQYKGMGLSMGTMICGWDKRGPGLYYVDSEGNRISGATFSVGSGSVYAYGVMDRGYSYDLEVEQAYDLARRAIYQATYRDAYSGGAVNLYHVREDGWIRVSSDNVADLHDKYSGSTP
# Sequence of CT-L activity of purified 20S proteasome (G1SU71 29-241): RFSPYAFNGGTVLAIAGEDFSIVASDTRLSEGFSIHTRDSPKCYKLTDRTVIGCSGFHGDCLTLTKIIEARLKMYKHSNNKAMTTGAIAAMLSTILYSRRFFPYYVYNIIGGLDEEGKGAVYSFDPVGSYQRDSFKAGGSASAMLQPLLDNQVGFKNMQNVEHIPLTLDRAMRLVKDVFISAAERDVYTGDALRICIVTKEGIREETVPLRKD
# [7] = system: MCF-7 human breast tumors; test: MCF-7 xenograft in nude mice; type: in vivo; conditions: MCF-7 s.c. xenograft, 1 mpk i.p. 2x weekly; for average tumor size: start ~200 mm^3, 16 days
# [8] = molecular target: tumor T-L activity of the proteasome (Homo sapiens, UniProt Q99436); test: Proteasome activity in A549 tumor lysates after in vivo treatment, T-L; set-up: species or system nude mice; conditions: A549 tumors, 1 mpk i.p., 2 h after last injection
# [9] = system: p27^Kip1 levels in A549 lung cancer cells; test: Western blot of p27Kip1 in cultured A549 cells; type: cell-based, human; conditions: 48 h
# [10] = system: primary multiple myeloma cells from patients' bone marrow; test: Proliferation of primary MM cells; type: cell-based, human; conditions: read-out: IC50 Proliferation
# [11] = system: all cancer and non-transformed cell lines except RPMI-8226; test: MTT cell viability assay, panel of cancer and non-transformed cell lines; type: cell-based; conditions: Homo sapiens, RPMI-8226, 24 h, read-out: IC50 cell viability (MTT)
# [12] = system: T80-Hras ovarian cells; test: MTT cell viability assay; type: cell-based, human; conditions: read-out: IC50 cell viability (MTT)
# [13] = molecular target: T-L activity of purified 20S proteasome (Oryctolagus cuniculus, UniProt G1SWK8); test: Proteolytic activity of purified 20S proteasome, T-L; type: biochemical, rabbit; conditions: read-out: IC50 T-L, in vitro
# Sequence of T-L activity of purified 20S proteasome (G1SWK8 44-271): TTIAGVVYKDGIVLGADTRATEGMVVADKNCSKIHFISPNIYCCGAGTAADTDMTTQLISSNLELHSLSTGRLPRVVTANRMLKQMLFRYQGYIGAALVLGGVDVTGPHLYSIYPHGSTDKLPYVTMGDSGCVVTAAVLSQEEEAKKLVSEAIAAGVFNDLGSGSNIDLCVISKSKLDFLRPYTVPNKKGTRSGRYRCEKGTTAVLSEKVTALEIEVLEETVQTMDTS
# [14] = system: MCF-7/MCF-10A, T80-Hras/T80, C7-Kras/C7 cells; test: Proliferation by Trypan Blue cell counting in 3 pairs of cell lines; type: cell-based, human; conditions: 24 h, Fig. 3
# [15] = system: LNCaP prostate cancer cells; test: MTT cell viability assay; type: cell-based, human
# [16] = system: primary multiple myeloma cells from patients' bone marrow; test: Viability of primary MM cells; type: cell-based, human; conditions: read-out: IC50 Viability
# [17] = molecular target: PGPH activity of purified 20S proteasome (Oryctolagus cuniculus, UniProt G1T235); test: Proteolytic activity of purified 20S proteasome, PGPH; type: biochemical, rabbit; conditions: read-out: IC50 PGPH, in vitro
# Sequence of PGPH activity of purified 20S proteasome (G1T235 96-265): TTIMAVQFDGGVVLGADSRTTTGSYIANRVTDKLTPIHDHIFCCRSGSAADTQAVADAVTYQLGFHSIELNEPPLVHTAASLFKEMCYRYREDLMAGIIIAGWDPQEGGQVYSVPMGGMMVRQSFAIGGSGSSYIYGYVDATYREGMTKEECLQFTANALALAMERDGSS
# [18] = system: C7 (HPDE6-C7) normal/immortalized pancreatic duct epithelial cells; test: MTT cell viability assay; type: cell-based, human; conditions: read-out: IC50 cell viability (MTT)
# [19] = system: RPMI-8226 multiple myeloma cells; test: MTT cell viability assay; type: cell-based, human; conditions: read-out: IC50 cell viability (MTT)
# [20] = system: MCF-7 breast cancer cells; test: MTT cell viability assay; type: cell-based, human; conditions: read-out: IC50 cell viability (MTT)
# [21] = Tolerability in treated mice; type: in vivo; conditions: mice treated with PI-083
# [22] = molecular target: CT-L activity in MCF-7/MCF-10A, T80-Hras/T80, C7-Kras/C7 cells (Homo sapiens, UniProt P20618+P28074); type: cell-based; conditions: 24 h, 3 pairs of cell lines, Fig. 2
# [23] = system: MCF-10A immortalized non-transformed breast cells; test: MTT cell viability assay; type: cell-based, human
# [24] = system: MCF-7/MCF-10A, T80-Hras/T80, C7-Kras/C7 cells; test: Cell death by Trypan Blue exclusion in 3 pairs of cell lines; type: cell-based, human; conditions: 24 h, Fig. 4
# [25] = system: C7-Kras (HPDE6-C7K-ras) pancreatic cells; test: MTT cell viability assay; type: cell-based, human
# [26] = molecular target: hepatic CT-L, T-L, and PGPH activities (Mus musculus, UniProt O09061+O55234+P70195+Q60692); type: in vivo, nude mice; conditions: livers of A549 tumor-bearing mice, 1 mpk i.p., 2 h after last injection
# [27] = system: DU-145 prostate cancer cells; test: MTT cell viability assay; type: cell-based, human; conditions: read-out: IC50 cell viability (MTT)
# [28] = system: A549 lung cancer cells; test: MTT cell viability assay; type: cell-based, human; conditions: read-out: IC50 cell viability (MTT)
# [29] = molecular target: T1, CT-L activity of the proteasome in primary multiple myeloma cells (Homo sapiens, UniProt P20618+P28074); test: CT-L activity in primary MM cells from patients' bone marrow; type: cell-based; conditions: read-out: IC50 CT-L Activity
# T1 sequence (P28074 60-263): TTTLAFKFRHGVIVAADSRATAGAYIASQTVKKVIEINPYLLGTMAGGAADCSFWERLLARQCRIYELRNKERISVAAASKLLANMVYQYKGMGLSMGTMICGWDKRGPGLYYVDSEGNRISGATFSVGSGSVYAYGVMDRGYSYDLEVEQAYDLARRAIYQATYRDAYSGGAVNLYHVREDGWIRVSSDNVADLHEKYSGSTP
# T1 sequence (P20618 29-241): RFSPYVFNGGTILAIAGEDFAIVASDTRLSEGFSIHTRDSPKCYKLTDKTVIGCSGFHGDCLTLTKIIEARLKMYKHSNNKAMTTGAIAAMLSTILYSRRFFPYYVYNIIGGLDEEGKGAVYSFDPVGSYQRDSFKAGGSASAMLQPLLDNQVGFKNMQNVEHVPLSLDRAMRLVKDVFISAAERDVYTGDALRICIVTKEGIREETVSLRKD
# [30] = system: CaLu-1 lung cancer cells; test: MTT cell viability assay; type: cell-based, human; conditions: read-out: IC50 cell viability (MTT)
# [31] = system: U266 multiple myeloma cells; test: MTT cell viability assay; type: cell-based, human; conditions: read-out: IC50 cell viability (MTT)
# [32] = Homo sapiens, Multiple myeloma cell, 24 h
# [33] = read-out: IC50 cell viability (MTT), 24 h
# [34] = read-out: IC50 cell viability (MTT), 72 h
smiles,measurement,setting,value
CC(C)C[C@H](NC(=O)[C@H](Cc1ccccc1)NC(=O)c1cnccn1)B(O)O [Bortezomib],inhibition of tumor CT-L activity vs vehicle-treated controls,[1],70%
same,inhibition of tumor PGPH activity vs vehicle-treated controls,[2],68%
same,apoptosis (TUNEL),[3]; any of the 6 cell lines,induced little apoptosis
same,average tumor size,[4],864 ± 207 mm^3
same,IC50,[5]; [32],> 10 µM
same,IC50,"[5]; patient 1, 24 h",> 10 µM
same,IC50,"[5]; patient 2, 24 h",> 10 µM
same,IC50,"[5]; patient 3, 24 h",> 10 µM
same,IC50,"[5]; patient 5, 24 h",> 10 µM
same,IC50,"[5]; patient 6, 24 h",> 10 µM
same,IC50,"[5]; patient 7, 24 h",> 10 µM
same,IC50,"[5]; patient 8, 24 h",> 10 µM
same,IC50,"[5]; patient 9, 24 h",> 10 µM
same,IC50,"[5]; patient 10, 24 h",> 10 µM
same,difference in potency between Bortezomib and PI-083,"[6]; CT-L, Bortezomib vs PI-083",100 fold
same,antitumor effect (in words),[7],ineffective
same,average tumor size,[7],"1,448 ± 145 mm^3"
same,inhibition of tumor T-L activity vs vehicle-treated controls,[8],0%
same,p27^Kip1 levels,[9],marked increase
same,IC50,[10]; [32],> 10 µM
same,IC50,"[10]; patient 1, 24 h",> 10 µM
same,IC50,"[10]; patient 2, 24 h",> 10 µM
same,IC50,"[10]; patient 3, 24 h",> 10 µM
same,IC50,"[10]; patient 5, 24 h",> 10 µM
same,IC50,"[10]; patient 6, 24 h",> 10 µM
same,IC50,"[10]; patient 7, 24 h",> 10 µM
same,IC50,"[10]; patient 8, 24 h",> 10 µM
same,IC50,"[10]; patient 9, 24 h",> 10 µM
same,IC50,"[10]; patient 10, 24 h",> 10 µM
same,IC50,[11],> 30 µM
same,IC50,"[12]; Homo sapiens, 24 h",> 30 µM
same,IC50,"[12]; Homo sapiens, 72 h",0.024 ± 0.01 µM
O=C1C(Cl)=C(Nc2ccc(S(=O)(=O)Nc3ccccn3)cc2)C(=O)c2ccccc21 [PI-083],IC50,[13],4.5 ± 1.4 µM
same,"inhibition of proliferation, cancer vs non-transformed cells",[14],more potently than their non-transformed
same,inhibition of tumor CT-L activity vs vehicle-treated controls,[1],43%
same,IC50,[15]; [33],14 ± 2.8 µM
same,IC50,[15]; [34],5.2 ± 1.1 µM
same,IC50,"[16]; patient 2, 24 h",> 10 µM
same,IC50,"[16]; patient 3, 24 h",> 10 µM
same,IC50,"[16]; patient 4, 24 h",2.2 µM
same,IC50,"[16]; patient 4, 72 h",2.2 µM
same,IC50,"[16]; patient 5, 24 h",3.4 µM
same,IC50,"[16]; patient 6, 72 h",1.4 µM
same,IC50,"[16]; patient 7, 24 h",1.8 µM
same,IC50,"[16]; patient 7, 48 h",1.4 µM
same,IC50,"[16]; patient 7, 72 h",1.3 µM
same,IC50,"[16]; patient 8, 24 h",2 µM
same,IC50,"[16]; patient 8, 72 h",1.8 µM
same,IC50,"[16]; patient 9, 24 h",1.4 µM
same,IC50,"[16]; patient 10, 24 h",> 10 µM
same,inhibition of tumor PGPH activity vs vehicle-treated controls,[2],34%
same,apoptosis (TUNEL),[3]; T80 cells,induced very little apoptosis
same,apoptosis (TUNEL),"[3]; cancer cell lines MCF-7, T80-Hras and C7-Kras",induced apoptosis in all 3 cancer cell lines
same,apoptosis (TUNEL),[3]; non-transformed MCF-10A and C7,did not induce apoptosis
same,IC50,[17],4.5 ± 1.2 µM
same,IC50,"[18]; C7, 24 h",5.1 ± 0.53 µM
same,IC50,"[18]; C7, 72 h",4.2 ± 1.6 µM
same,IC50,"[19]; RPMI-8226, 24 h",7.4 ± 0.38 µM
same,IC50,"[19]; RPMI-8226, 72 h",10 ± 4 µM
same,IC50,"[20]; MCF-7, 24 h",4.5 ± 0.82 µM
same,IC50,"[20]; MCF-7, 72 h",2.2 ± 1.1 µM
same,"weight, appetite, activity of treated mice",[21],"no weight loss, change in appetite or activity"
same,"selectivity of CT-L inhibition, tumor vs non-transformed cells",[22],inhibited more selectively the CT-L activity in tumor over non-transformed cells
same,tumor growth inhibition,[4],54%
same,average tumor size,[4],about 511 ± 134 mm^3
same,IC50,"[5]; patient 5, 24 h",1.1 µM
same,IC50,"[5]; patient 10, 24 h",9 µM
same,IC50,"[6]; read-out: IC50 CT-L, purified 20S proteasome, in vitro",1 ± 0.63 µM
same,IC50,[23]; [33],17 ± 0.86 µM
same,IC50,[23]; [34],4.2 ± 2.1 µM
same,"cell death, cancer vs non-transformed cells",[24],much more effective in increasing cell death in all 3 cancer cell lines over their non-transformed counterparts
same,tumor growth inhibition,[7],84%
same,average tumor size,[7],about 396 ± 137 mm^3
same,inhibition of tumor T-L activity vs vehicle-treated controls,[8],12%
same,p27^Kip1 levels,[9],marked increase
same,IC50,[25]; [33],2.4 ± 0.23 µM
same,IC50,[25]; [34],1.9 ± 0.2 µM
same,"effect on liver proteasome activities (CT-L, T-L, PGPH)",[26],did not inhibit
same,IC50,"[27]; DU-145, 24 h",8.6 ± 0.63 µM
same,IC50,"[27]; DU-145, 72 h",5 ± 0.72 µM
same,IC50,"[28]; A549, 24 h",41 ± 17 µM
same,IC50,"[28]; A549, 72 h",11 ± 6.7 µM
same,IC50,"[29]; patient 3, 24 h",1.4 µM
same,IC50,"[29]; patient 6, 24 h",1.2 µM
same,IC50,"[29]; patient 9, 24 h",1.8 µM
same,IC50,"[10]; patient 1, 24 h",5 µM
same,IC50,"[10]; patient 2, 24 h",2.9 µM
same,IC50,"[10]; patient 4, 24 h",1.3 µM
same,IC50,"[10]; patient 5, 24 h",2.2 µM
same,IC50,"[10]; patient 6, 24 h",2.2 µM
same,IC50,"[10]; patient 10, 24 h",10 µM
same,IC50,"[30]; CaLu-1, 24 h",7.3 ± 0.43 µM
same,IC50,"[30]; CaLu-1, 72 h",4.9 ± 1.2 µM
same,IC50,"[12]; T80-Hras, 24 h",1.5 ± 0.57 µM
same,IC50,"[12]; T80-Hras, 72 h",2.1 ± 0.4 µM
same,IC50,"[31]; U266, 24 h",23 ± 1.7 µM
same,IC50,"[31]; U266, 72 h",7 ± 1.5 µM
